Series [1] is described as follows: Microsomal clearance, human liver microsomes. The series is classed as in vitro ADME. As to conditions: both, pH 7.4, Clint human.
The nature of series [2]: Dog blood pharmacokinetics. The series is classed as in vivo. As to conditions: whole blood, iv, 1 mg/kg.
For another series, the target named is T1, MPS1 (Homo sapiens, UniProt P33981).
T1 sequence (P33981 1-857): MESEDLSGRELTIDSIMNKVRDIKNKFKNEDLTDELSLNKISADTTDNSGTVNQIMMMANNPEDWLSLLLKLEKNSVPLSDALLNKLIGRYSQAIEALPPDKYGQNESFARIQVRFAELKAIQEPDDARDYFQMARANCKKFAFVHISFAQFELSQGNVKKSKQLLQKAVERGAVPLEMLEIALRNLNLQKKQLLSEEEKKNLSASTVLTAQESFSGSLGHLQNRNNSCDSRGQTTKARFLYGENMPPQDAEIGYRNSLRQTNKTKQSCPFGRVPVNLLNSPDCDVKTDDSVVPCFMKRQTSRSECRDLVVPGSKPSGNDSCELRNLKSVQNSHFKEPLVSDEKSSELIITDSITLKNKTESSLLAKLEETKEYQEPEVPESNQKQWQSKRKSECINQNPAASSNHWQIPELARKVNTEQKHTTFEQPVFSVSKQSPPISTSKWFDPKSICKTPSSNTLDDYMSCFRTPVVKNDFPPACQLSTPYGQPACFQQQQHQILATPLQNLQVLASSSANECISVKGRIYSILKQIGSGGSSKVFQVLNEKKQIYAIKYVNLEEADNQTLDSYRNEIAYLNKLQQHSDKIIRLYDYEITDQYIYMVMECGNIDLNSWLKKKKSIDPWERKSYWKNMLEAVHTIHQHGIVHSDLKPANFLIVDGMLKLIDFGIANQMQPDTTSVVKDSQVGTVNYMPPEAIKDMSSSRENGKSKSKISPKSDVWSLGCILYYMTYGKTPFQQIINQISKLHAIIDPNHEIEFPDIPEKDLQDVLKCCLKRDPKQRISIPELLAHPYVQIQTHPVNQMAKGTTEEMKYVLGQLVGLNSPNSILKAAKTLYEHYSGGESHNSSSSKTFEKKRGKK
The series is classed as biochemical. As to conditions: 2,2-dimethylazetidine 48 compared with neopentyl-like analogue (47).

In series [1], `COc1cc(-c2cnc(C)n2C)ccc1Nc1ncc2ccnc(NCC(C)(C)C)c2n1` [Compound 16, N^2-(4-(1,2-Dimethyl-1H-imidazol-5-yl)-2-methoxyphenyl)-N^8-neopentylpyrido[3,4-d]pyrimidine-2,8-diamine] registered a microsomal CLint at 1 μM of 79 µL/min/mg.

In turn, `CCOc1cc(-c2nncn2C)ccc1Nc1ncc2cc(C)nc(NCC(C)(C)C)c2n1` [Compound 36, N^2-(2-Ethoxy-4-(4-methyl-4H-1,2,4-triazol-3-yl)phenyl)-6-methyl-N^8-neopentylpyrido[3,4-d]pyrimidine-2,8-diamine] showed a clearance in series [2] of 1.2 mL/min/kg.

`CCOc1cc(-c2nncn2C)ccc1Nc1ncc2cc(C)nc(N3CCC3(C)C)c2n1` [Compound 48, 8-(2,2-Dimethylazetidin-1-yl)-N-(2-ethoxy-4-(4-methyl-4H-1,2,4-triazol-3-yl)phenyl)-6-methylpyrido[3,4-d]pyrimidin-2-amine]: the “fold higher IC50” value on MPS1 is on record as 40 fold.

As usually defined, the microsomal CLint is the capacity of the preparation to metabolise the compound, expressed as a volume cleared per time. A high value points to faster metabolism. The term clearance denotes the rate of elimination divided by the concentration.

Values taken from PMC6166229 (Journal of Medicinal Chemistry, 2018).
